Assay results taken from ChEMBL document CHEMBL1127144, “Cyclopentenones as potential inhibitors of penicillin sensitive enzymes” (Bioorg Med Chem Lett, 1993).
Calls of active or inactive are those of the source.

Key:
Bacillus subtilis = experiment: Compound was evaluated for antibacterial activity against Bacillus subtilis ATCC 6633; Inactive; format: functional, organism-based
[1] = biological target: Beta-lactamase TEM (Escherichia coli) (UniProt P62593); experiment: Compound was evaluated for the inhibitory activity against beta-lactamase of Escherichia coli (TEM-1); Inactive
[2] = biological target: Beta-lactamase (Enterobacter cloacae) (UniProt P05364); experiment: Compound was evaluated for the inhibitory activity against beta-lactamase of Enterobacter cloacae P99; Inactive
[3] = biological target: T1, Beta-lactamase 1 (Bacillus cereus) (UniProt P00809); experiment: Compound was evaluated for the inhibitory activity against beta-lactamase of Bacillus cereus; Inactive
T1 sequence (whole entry): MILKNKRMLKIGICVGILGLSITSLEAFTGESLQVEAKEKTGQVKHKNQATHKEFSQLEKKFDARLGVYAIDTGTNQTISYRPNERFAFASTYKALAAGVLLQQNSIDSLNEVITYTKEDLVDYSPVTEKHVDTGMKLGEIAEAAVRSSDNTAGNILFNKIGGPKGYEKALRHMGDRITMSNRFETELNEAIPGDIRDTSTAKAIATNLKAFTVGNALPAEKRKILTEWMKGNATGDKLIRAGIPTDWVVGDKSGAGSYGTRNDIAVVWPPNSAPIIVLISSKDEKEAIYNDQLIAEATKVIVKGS

Streptomyces = experiment: Compound was evaluated for the inhibitory activity against D, D-carboxypeptidase of Streptomyces R39; Inactive
Enterococcus faecalis = experiment: Compound was evaluated for antibacterial activity against […] I; Inactive; format: functional, organism-based
Escherichia coli = experiment: Compound was evaluated for antibacterial activity against Escherichia coli ESS; Inactive; format: functional, organism-based
[4] = tested on: mycobacterium catarrhalis; experiment: Compound was evaluated for antibacterial activity against Mycobacterium catarrhalis 1502; Inactive; format: functional
Pseudomonas aeruginosa = experiment: Compound was evaluated for antibacterial activity against Pseudomonas aeruginosa 447B-ES48; Inactive; format: functional, organism-based
Streptococcus pneumoniae = experiment: Compound was evaluated for antibacterial activity against Streptococcus pneumoniae 1761; Inactive; format: functional, organism-based
Streptococcus agalactiae = experiment: Compound was evaluated for antibacterial activity against Streptococcus agalactiae Hester; Inactive; format: functional, organism-based
Staphylococcus aureus = experiment: Compound was evaluated for antibacterial activity against Staphylococcus aureus Oxford; Inactive; format: functional, organism-based
Streptococcus pyogenes = experiment: Compound was evaluated for antibacterial activity against Streptococcus pyogenes CN10; Inactive; format: functional, organism-based
Haemophilus influenzae = experiment: Compound was evaluated for antibacterial activity against Haemophilus influenzae Q1; Inactive; format: functional, organism-based
[5] = biological target: Beta-lactamase (Streptomyces albus G) (UniProt P14559); experiment: Compound was evaluated for the inhibitory activity against beta-lactamase of Streptomyces albus G; Inactive

Measured: Activity

Beta-lactamase (Enterobacter cloacae), sequence (P05364 21-381 limits assumed): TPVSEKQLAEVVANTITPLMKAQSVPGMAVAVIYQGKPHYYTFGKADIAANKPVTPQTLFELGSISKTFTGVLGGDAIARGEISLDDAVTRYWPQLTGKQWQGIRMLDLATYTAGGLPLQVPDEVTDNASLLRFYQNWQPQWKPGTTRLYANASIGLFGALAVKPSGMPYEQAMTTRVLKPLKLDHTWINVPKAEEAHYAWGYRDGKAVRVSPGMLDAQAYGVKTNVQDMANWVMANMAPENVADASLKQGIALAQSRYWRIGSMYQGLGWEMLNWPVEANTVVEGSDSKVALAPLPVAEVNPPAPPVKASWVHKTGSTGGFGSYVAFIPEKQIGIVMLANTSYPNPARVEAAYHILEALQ
Beta-lactamase (Streptomyces albus G), sequence (P14559 whole entry, looked up): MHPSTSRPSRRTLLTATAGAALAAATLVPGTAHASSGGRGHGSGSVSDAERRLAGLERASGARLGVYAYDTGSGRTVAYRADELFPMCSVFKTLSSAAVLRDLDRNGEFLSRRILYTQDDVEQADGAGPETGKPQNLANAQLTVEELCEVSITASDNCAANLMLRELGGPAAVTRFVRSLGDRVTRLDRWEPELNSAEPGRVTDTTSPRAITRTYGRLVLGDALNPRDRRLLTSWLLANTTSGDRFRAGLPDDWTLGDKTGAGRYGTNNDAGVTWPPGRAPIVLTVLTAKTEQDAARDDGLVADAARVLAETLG
Beta-lactamase TEM (Escherichia coli), sequence (P62593 whole entry): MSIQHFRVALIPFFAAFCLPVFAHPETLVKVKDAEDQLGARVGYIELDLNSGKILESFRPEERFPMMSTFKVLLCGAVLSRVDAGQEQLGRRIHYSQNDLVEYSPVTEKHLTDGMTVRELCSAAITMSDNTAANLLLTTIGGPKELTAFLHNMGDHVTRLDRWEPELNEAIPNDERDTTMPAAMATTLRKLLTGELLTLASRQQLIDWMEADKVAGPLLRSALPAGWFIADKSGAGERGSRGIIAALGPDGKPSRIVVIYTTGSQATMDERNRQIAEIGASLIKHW

NC1C=C(CC(=O)O)C(=O)C1 (stereo not given)
inactive: all assays above

O=C(O)CC1=CC(NC(=O)Cc2ccccc2)CC1=O (stereo not given)
inactive: all assays above

CO/N=C(/C(=O)NC1C=C(CC(=O)O)C(=O)C1)c1csc(N)n1 (stereo not given)
inactive: all assays above
